US6417186B1, “Substituted-phenyl ketone derivatives as IP antagonists” (Syntex (U.S.A.) LLC, priority 2000, dated 2002)

melting point | SMILES
196 to 197.6 °C | O=C(CCc1ccc(NC2=NCCN2)cc1)c1ccc(N2CCOCC2)cc1 [Example 3, 3-[4-(4,5-Dihydro-1H-imidazol-2-ylamino)phenyl]-1-(4-morpholin-4-ylphenyl)-propan-1-one]
150 to 151.2 °C | CCOC(=O)N1CCN(c2ccc(C(=O)CCc3ccc(NC4=NCCN4)cc3)cc2)CC1 [Example 5, 3-[4-(4,5-Dihydro-1H-imidazol-2-ylamino)phenyl]-1-[4-(4-ethoxycarbonyl-piperazin-1-yl)phenyl]propan-1-one]
